From paper PMC12892976, “Alkylation-based optimization of antifungal FPPS inhibitors yields a potent, broad-spectrum lipophilic zoledronate derivative” (mBio, 2025)

Key:
Trichophyton rubrum = assay: checkerboard drug interaction (FICI, MICc);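 note: simplified diagonal checkerboard screen pairing azole antifungals with FPPS inhibitors, FICI calculated under the Loewe additivity model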; assay type: cell-based; conditions: T. rubrum, MIC-MICc fold decrease of the inhibitor
Experimental: (§1) Drug interactions between antifungals and FPPS inhibitors were investigated using a simplified checkerboard diagonal screening method ([45]). […] FICIs were determined according to the Loewe additivity model ([17]).

Candida albicans [1] = assay: MIC/MFC broth microdilution (CLSI); assay type: cell-based; conditions: Candida albicans SC5314
Experimental: (§2) Antifungal susceptibility was determined by broth microdilution according to the CLSI guidelines described in M27-Ed4 ([16]). […] MFC was determined by back-plating drug-treated cultures from MIC broths onto SDA plates. The MFC was defined as the lowest concentration from which no colonies could be cultured.

Cryptococcus neoformans [2] = assay: MIC/MFC broth microdilution (CLSI); conditions: Cryptococcus neoformans;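 note: susceptibility testing followed the CLSI M27-Ed4 broth microdilution document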
Experimental: as §2

Candida glabrata = assay: checkerboard drug interaction (FICI, MICc);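 for all read-outs here: simplified diagonal checkerboard screen pairing antifungals with FPPS inhibitors, FICI calculated under the Loewe additivity model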; assay type: cell-based; conditions: C. glabrata; for INH FD (MIC-MICc fold decrease): fold decrease of inhibitor MIC
Experimental: as §1

Aspergillus fumigatus [3] = assay: MIC/MFC broth microdilution (CLSI); conditions: ATCC204305
Experimental: as §2

[4] = tested on: Cryptococcus deuterogattii; assay: MIC/MFC broth microdilution (CLSI); conditions: Cryptococcus deuterogattii;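 note: broth microdilution per CLSI M27-Ed4. MFC is the lowest concentration yielding no colonies when MIC broths are subcultured onto SDA plates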
Experimental: as §2

Candida albicans [5] = assay: checkerboard drug interaction (FICI, MICc);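 for all read-outs here: antifungal plus FPPS inhibitor combinations on Candida albicans tested by a simplified diagonal checkerboard screen, with FICI calculated under the Loewe additivity model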; assay type: cell-based; conditions: C. albicans; for INH FD (MIC-MICc fold decrease): fold decrease of inhibitor MIC
Experimental: as §1

Cryptococcus neoformans [6] = assay: checkerboard drug interaction (FICI, MICc);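 for all read-outs here: antifungal plus FPPS inhibitor pairs tested against Cryptococcus neoformans by simplified diagonal checkerboard screening, FICI computed under the Loewe additivity model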; assay type: cell-based; conditions: C. neoformans; for INH FD (MIC-MICc fold decrease): fold decrease of inhibitor MIC
Experimental: as §1

Aspergillus fumigatus [7] = assay: checkerboard drug interaction (FICI, MICc);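 for all read-outs here: simplified diagonal checkerboard screen pairing antifungals with FPPS inhibitors against Aspergillus fumigatus, with FICI calculated under the Loewe additivity model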; assay type: cell-based; conditions: A. fumigatus; for INH FD (MIC-MICc fold decrease): fold decrease of inhibitor MIC
Experimental: as §1

[8] = FLC:INH combination, MIC of the inhibitor in combination with FLC
[9] = FLC:INH combination, fold decrease of FLC MIC
[10] = ITR:INH combination, MIC of the inhibitor in combination with ITR
[11] = ITR:INH combination, fold decrease of ITR MIC
[12] = KET:INH combination, MIC of the inhibitor in combination with KET
[13] = KET:INH combination, fold decrease of KET MIC

CCCCCCCCCN1CCC[C@H]1C(=O)N[C@@H](CC(=O)OC)C(=O)OC [dmPLA9]
1.03: FICI (Aspergillus fumigatus [7]; ITR:INH combination)
128 µg/mL: MIC (Cryptococcus neoformans [2]) | MIC (Aspergillus fumigatus [3]) | MIC [4]
2: FICI (Aspergillus fumigatus [7]; KET:INH combination)
> 128 µg/mL: MFC (Candida albicans [1]) | MIC (Candida albicans [1]) | MFC (Cryptococcus neoformans [2]) | MFC (Aspergillus fumigatus [3]) | MFC [4]
≥4: FICI (Candida glabrata; FLC:INH combination) | FICI (Cryptococcus neoformans [6]; FLC:INH combination) | FICI (Cryptococcus neoformans [6]; ITR:INH combination)
64: INH MICc (Candida glabrata; [8]) | INH MICc (Cryptococcus neoformans [6]; [12])
4: INH FD (MIC-MICc fold decrease) (Candida glabrata; FLC:INH combination) | INH MICc (Aspergillus fumigatus [7]; [10]) | KET MICc (Aspergillus fumigatus [7]; KET:INH combination, MIC of KET in combination with the inhibitor)
8: INH MICc (Candida glabrata; [10]) | INH MICc (Candida glabrata; [12]) | INH FD (MIC-MICc fold decrease) (Candida albicans [5]; FLC:INH combination) | INH FD (MIC-MICc fold decrease) (Candida albicans [5]; ITR:INH combination) | INH FD (MIC-MICc fold decrease) (Candida albicans [5]; KET:INH combination)
1.5: FICI (Candida glabrata; ITR:INH combination) | FICI (Candida glabrata; KET:INH combination)
3: FICI (Cryptococcus neoformans [6]; KET:INH combination) | FICI (Aspergillus fumigatus [7]; FLC:INH combination)
-2: INH FD (FLC:INH) (Trichophyton rubrum; with fluconazole) | FLC FD (MIC-MICc fold decrease) (Candida albicans [5]; [9]) | ITR FD (MIC-MICc fold decrease) (Candida albicans [5]; [11]) | KET FD (MIC-MICc fold decrease) (Candida albicans [5]; [13]) | INH FD (MIC-MICc fold decrease) (Cryptococcus neoformans [6]; FLC:INH combination) | INH FD (MIC-MICc fold decrease) (Cryptococcus neoformans [6]; ITR:INH combination) | KET FD (MIC-MICc fold decrease) (Cryptococcus neoformans [6]; [13]) | INH FD (MIC-MICc fold decrease) (Aspergillus fumigatus [7]; FLC:INH combination)
-4: FLC FD (MIC-MICc fold decrease) (Candida glabrata; [9]) | FLC FD (MIC-MICc fold decrease) (Cryptococcus neoformans [6]; [9]) | ITR FD (MIC-MICc fold decrease) (Cryptococcus neoformans [6]; [11])
128: INH MICc (Cryptococcus neoformans [6]; [8]) | INH MICc (Cryptococcus neoformans [6]; [10]) | FLC MICc (Aspergillus fumigatus [7]; FLC:INH combination, MIC of FLC in combination with the inhibitor) | INH MICc (Aspergillus fumigatus [7]; [12])
1: INH FD (ITR:INH) (Trichophyton rubrum; with itraconazole) | INH FD (KET:INH) (Trichophyton rubrum; with ketoconazole) | ITR FD (MIC-MICc fold decrease) (Candida glabrata; [11]) | KET FD (MIC-MICc fold decrease) (Candida glabrata; [13]) | INH FD (MIC-MICc fold decrease) (Cryptococcus neoformans [6]; KET:INH combination) | FLC FD (MIC-MICc fold decrease) (Aspergillus fumigatus [7]; [9]) | ITR FD (MIC-MICc fold decrease) (Aspergillus fumigatus [7]; [11]) | KET FD (MIC-MICc fold decrease) (Aspergillus fumigatus [7]; [13]) | INH FD (MIC-MICc fold decrease) (Aspergillus fumigatus [7]; KET:INH combination)
256: INH MICc (Aspergillus fumigatus [7]; [8])
2.13: FICI (Candida albicans [5]; FLC:INH combination) | FICI (Candida albicans [5]; ITR:INH combination) | FICI (Candida albicans [5]; KET:INH combination)
0.125: ITR MICc (Aspergillus fumigatus [7]; ITR:INH combination, MIC of ITR in combination with the inhibitor)
16: INH MICc (Candida albicans [5]; [8]) | INH MICc (Candida albicans [5]; [10]) | INH MICc (Candida albicans [5]; [12])
32: INH FD (MIC-MICc fold decrease) (Candida glabrata; ITR:INH combination) | INH FD (MIC-MICc fold decrease) (Candida glabrata; KET:INH combination) | INH FD (MIC-MICc fold decrease) (Aspergillus fumigatus [7]; ITR:INH combination)
